Assay results reported in the supplement of paper PMC10307832.

Tests used:
Experiment in all cases: relative viability (nuclei count vs DMSO), 5 days (fraction); higher = more cells survive
Wnt-C59 + Crizotinib = compound: CC1=NC=CC(=C1)C2=CC=C(C=C2)CC(=O)NC3=CC=C(C=C3)C4=CN=CC=C4 [Wnt-C59] + C[C@@H](Oc1cc(-c2cnn(C3CCNCC3)c2)cnc1N)c1c(Cl)ccc(F)c1Cl [Crizotinib] (partner 1 µM)
How it was run: (§1)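 For relative viability, nuclei counts in treated wells were divided by those in vehicle wells. Lung cancer cell lines had been pin-tool dosed in 1536-well plates the day after seeding and cultured for 5 days, then fixed and stained in one step (final 0.05% Triton X-100, 1% formaldehyde, 1 ug/ml Hoechst) and imaged at 4×. Doses were one drug alone or a fixed anchor-drug dose plus five library-drug doses (not always all listed) in √10 steps, and values are duplicate-plate medians.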

Lapatinib + Crizotinib = compound: CS(=O)(=O)CCNCc1ccc(-c2ccc3ncnc(Nc4ccc(OCc5cccc(F)c5)c(Cl)c4)c3c2)o1 [Lapatinib] + C[C@@H](Oc1cc(-c2cnn(C3CCNCC3)c2)cnc1N)c1c(Cl)ccc(F)c1Cl [Crizotinib] (partner 1 µM)
How it was run: as §1

Lapatinib + Alpelisib = compound: CS(=O)(=O)CCNCc1ccc(-c2ccc3ncnc(Nc4ccc(OCc5cccc(F)c5)c(Cl)c4)c3c2)o1 [Lapatinib] + Cc1nc(NC(=O)N2CCC[C@H]2C(N)=O)sc1-c1ccnc(C(C)(C)C(F)(F)F)c1 [Alpelisib] (partner 2 µM)
How it was run: as §1

Lapatinib + Palbociclib = compound: CS(=O)(=O)CCNCc1ccc(-c2ccc3ncnc(Nc4ccc(OCc5cccc(F)c5)c(Cl)c4)c3c2)o1 [Lapatinib] + CC(=O)c1c(C)c2cnc(Nc3ccc(N4CCNCC4)cn3)nc2n(C2CCCC2)c1=O [Palbociclib] (partner 0.5 µM)
How it was run: as §1

Cell Line	relative viability (Wnt-C59 + Crizotinib; first compound 0.001 µM)	relative viability (Wnt-C59 + Crizotinib; first compound 0.01 µM)	relative viability (Wnt-C59 + Crizotinib; first compound 0.03162 µM)	relative viability (Wnt-C59 + Crizotinib; first compound 0.1 µM)	relative viability (Lapatinib + Crizotinib; first compound 0.02 µM)	relative viability (Lapatinib + Crizotinib; first compound 0.06325 µM)	relative viability (Lapatinib + Crizotinib; first compound 0.2 µM)	relative viability (Lapatinib + Crizotinib; first compound 0.6325 µM)	relative viability (Lapatinib + Crizotinib; first compound 2 µM)	relative viability (Lapatinib + Alpelisib; first compound 0.02 µM)	relative viability (Lapatinib + Alpelisib; first compound 0.06325 µM)	relative viability (Lapatinib + Alpelisib; first compound 0.2 µM)	relative viability (Lapatinib + Alpelisib; first compound 0.6325 µM)	relative viability (Lapatinib + Alpelisib; first compound 2 µM)	relative viability (Lapatinib + Palbociclib; first compound 0.02 µM)	relative viability (Lapatinib + Palbociclib; first compound 0.06325 µM)	relative viability (Lapatinib + Palbociclib; first compound 0.2 µM)	relative viability (Lapatinib + Palbociclib; first compound 0.6325 µM)	relative viability (Lapatinib + Palbociclib; first compound 2 µM)
NCI-H2228	0.509	0.393	0.563	0.466	0.603	0.342	0.462	0.379	0.297	0.675	0.688	0.811	0.907	0.59	0.395	0.606	0.744	0.739	0.54
NCI-H2126	0.994	0.998	0.987	1.01		0.879	1.02	1.04	0.865		0.587	0.668	0.677	0.549	0.38	0.349	0.346	0.348	0.319
EMC-BAC-2	0.642	0.649	0.636	0.678	0.729	0.635	0.788	0.661	0.74	0.72	0.652	0.694	0.622	0.592		0.459	0.524	0.536	0.539
NCI-H520	0.915	0.83	0.831	0.716	0.726	0.759	0.863	0.812	0.745	0.961	0.805	0.912	1.02	0.807	0.221	0.2	0.231	0.291	0.238
LXF-289	0.822	0.768	0.817	0.78	0.819	0.85	0.805	0.779	0.743	0.987	1.04	1.06	0.987	0.922	0.615	0.588	0.588	0.577	0.526
EPLC-272H	0.955	0.8	0.874	0.53		0.722	0.831	0.79	0.639		0.807	0.819	0.746	0.821		0.288	0.291	0.299	0.261
NCI-H838	0.839	0.826	0.902	0.916	0.838	0.764	1.07	0.855	0.757	1.05	0.88	1.07	0.967	0.912	0.225	0.193	0.201	0.238	0.178
NCI-H2405	0.833	0.806	0.812	0.779	0.628	0.753	0.884	0.824	0.767		0.609	0.733	0.781	0.689		0.452		0.505	0.518
LC-2-ad	0.45	0.442	0.553	0.279		0.487	0.473	0.436	0.375		0.796	0.856	0.877	0.73		0.522	0.527	0.501	0.476
NCI-H3122	0.28	0.268	0.283	0.249	0.277	0.224	0.27	0.268	0.274	0.714	0.725	0.752	0.691	0.771	0.185	0.176	0.17	0.198	0.236
NCI-H727	0.843	0.779	0.944	0.682	0.77	0.663	0.657	0.718	0.572	0.515	0.484	0.472	0.558	0.366	0.65		0.653	0.618	0.557
A-427	0.982	0.798	0.962	0.905		0.804	0.945	0.936	0.77		1.04	1.1	1.07	1.04	0.544	0.518	0.526	0.524	0.483
201T	1.01	1.02	1.01	1.03	0.869	0.996	1.02	0.966	0.977	0.998	0.834	0.993	1	0.943	0.358	0.309	0.339	0.338	0.342
NCI-H1944	1.04	0.971	1.18	1.07			0.811	0.808	0.56			0.645	0.647	0.488	0.304	0.253	0.265	0.275	0.225
SK-LU-1	0.869	0.935	0.91	1.03		0.814	0.992	1.07	0.859		0.953	0.99	1.1	0.977	0.36	0.394	0.455	0.44	0.392
NCI-H1975	0.98	0.936	1.04	0.948	0.949	0.837	1.05	0.85	0.736	0.662	0.58	0.537	0.573	0.462	0.285	0.492	0.518	0.575	0.311
NCI-H322M	0.819	0.937	0.877	0.841	0.823	0.649	0.912	0.857	0.735	0.776	0.669	0.808	0.73	0.773	0.464	0.432	0.455	0.446	0.434
RERF-LC-KJ	0.868	0.764	0.878	0.852	0.803	0.802	0.86	0.876	0.726	0.729	0.463	0.673	0.655	0.468	1.11	0.885	0.996	0.864	0.799
NCI-H23	0.521	0.463	0.537	0.599			0.504	0.396	0.412			0.737	0.719	0.521			0.488	0.512	0.457
NCI-H2347	0.673	0.598	0.612	0.653	0.7	0.654	0.722	0.649	0.671	0.901	1.01	1.07	0.844	1.02	0.385	0.45	0.456	0.378	0.386
LCLC-97TM1	0.292	0.344	0.545	0.283			0.593	0.472	0.357			0.232	0.284	0.257		0.135	0.248	0.19	0.233
